The test system of assay [1] is PKG-1α. The assay can be described thus: PKG activity in transfected HEK-293T cells. Format: cell-based, human. The conditions noted are these: HEK-293T; SIN-1 500 μM, 30 min. As for the experimental part:
(§1) To determine the role of tyrosine 247 and tyrosine 425 in mediating the nitration dependent inhibition of PKG-1α kinase activity, Y247F- and Y425F-PKG-1α mutants were generated and expressed in HEK-293T cells. HEK-293T cells were transiently transfected with expression plasmids containing WT-, Y247F-, or Y425F-PKG-1α for 48 h. […] Protein extracts were immunoprecipitated using an antibody raised against PKG-1α and the level of nitrated PKG-1α determined by probing the membranes with an antiserum raised against 3-NT. The blots were then stripped and re-probed for PKG-1α to normalize for the efficiency of the immunoprecipitation.
(§2) Total PKG activity was determined using a non-radioactive immunoassay in cell lysates, according to the manufacturer's directions. […]
(§3) After incubation for 30 min at 30° C. to allow the phosphorylation of the bound substrate, an HRP conjugated anti-phosphothreonine specific antibody was added to convert a chromogenic substrate to a colorimetric substrate that was subsequently read spectrophotometrically at 450 nm. The change in absorbance reflected the relative activity of PKG in the sample. […] The kinetic constants were determined using nonlinear regression (curve fit) analysis (GraphPad Prism Software Inc.).

Assay [2] deals with T1, PKG-1α (Homo sapiens, UniProt Q13976, Y425F).
T1 construct: an expression plasmid containing a full length WT-PKG-1α cDNA; expressed in transfected cells; host or cells: HEK-293T
T1 sequence (Q13976 2-671 Y425F): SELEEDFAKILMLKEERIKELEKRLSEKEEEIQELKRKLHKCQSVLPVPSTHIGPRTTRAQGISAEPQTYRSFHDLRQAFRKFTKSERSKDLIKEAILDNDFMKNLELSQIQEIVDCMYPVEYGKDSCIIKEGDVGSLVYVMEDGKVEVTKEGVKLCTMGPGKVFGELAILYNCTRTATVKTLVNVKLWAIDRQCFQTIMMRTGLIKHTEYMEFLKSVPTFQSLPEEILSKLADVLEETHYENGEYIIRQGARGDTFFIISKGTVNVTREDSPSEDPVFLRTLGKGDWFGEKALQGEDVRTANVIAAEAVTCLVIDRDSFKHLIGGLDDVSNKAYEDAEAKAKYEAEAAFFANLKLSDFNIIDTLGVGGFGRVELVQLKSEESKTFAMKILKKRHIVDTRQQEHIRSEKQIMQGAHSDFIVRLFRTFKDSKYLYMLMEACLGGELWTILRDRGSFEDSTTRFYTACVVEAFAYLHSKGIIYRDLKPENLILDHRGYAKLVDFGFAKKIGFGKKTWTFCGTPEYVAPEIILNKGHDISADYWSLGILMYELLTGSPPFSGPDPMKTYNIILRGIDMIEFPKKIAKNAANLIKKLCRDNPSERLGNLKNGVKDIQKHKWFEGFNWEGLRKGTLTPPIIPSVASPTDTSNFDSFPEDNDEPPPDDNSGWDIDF
The assay is described as follows: PKG activity in transfected HEK-293T cells. Format: cell-based. The conditions noted are these: HEK-293T expressing Y425F-PKG-1α; SIN-1 500 μM, 30 min. As for the experimental part:
as §1, §2, §3

For assay [3], the system named is pulmonary artery smooth muscle cells (PASMC). The assay can be described thus: PASMC cell growth (cell count). The conditions noted are these: WT-PKG-1α transfected PASMC; SIN-1 500 μM, 48 h. Format: cell-based, lamb. The procedure: Pulmonary artery smooth muscle cells (PASMC) were grown on a 10 cm dish to 75% confluence, transfected with WT-PKG-1α or Y247F-PKG-1α cDNA using a Qiagen transfection kit, according to manufacturer's instructions, and incubated at 37° C. for 20 h. […] The cells were then trypsinized, seeded onto a 6-well plate at a density of 2.5×10^4 cells per well, and grown for an additional 4 h in serum-free DMEM growth medium containing 1% FBS and antibiotics. The cells were then treated with or without SIN-1 (500 μM) and allowed to grow at 37° C. in the incubator for an additional 48 h. The cellular proliferation was evaluated by counting the cells with a hemacytometer (Cascade Biologicals™, Portland, Oreg.) after the trypsinization of the PASMC monolayers.
Primary cultures of pulmonary artery smooth muscle cells (PASMC) from 4-week old lambs were isolated by the explant technique, as previously described (Wedgwood, S., et al., Circulation Research 89, 357-364 (2001)). Briefly, a segment of the main pulmonary artery from a 4-week old lamb was excised and placed in a sterile 10 cm dish containing DMEM supplemented with 1 gm/1 glucose. The segment was stripped of adventitia with a sterile forceps. The main pulmonary artery segment was then cut longitudinally to open the vessel, and the endothelial layer was removed by gentle rubbing with a cell scraper. […]

“3-morpholinosydnonimine N-ethylcarbamide [SIN-1]”: in assay [1], the “cGMP-independent PKG activity” value is on record as “did not alter”. The “cGMP dependent PKG activity” value in assay [2] is “attenuated”. Further, the proliferation entry in assay [3] is “stimulated”.

Values taken from US9551711B2, “Compositions and methods for detecting nitration of PKG-1α and methods of use thereof” (Augusta University Research Institute, Inc., priority 2013, dated 2017).
